# Article PMC9232501, “Results of the phase I CCTG IND.231 trial of CX-5461 in patients with advanced solid tumors enriched for DNA-repair deficiencies” (Nature Communications, 2022)
# Several values for one entry are separate records, joined by “and”; a condition that tells them apart may be missing. Identical values can stand only once.
# Tested on: HCT116 cells
# Test: HCT116 cytotoxicity (WST-1 assay) with and without UVA radiation
# Format: cell-based, Human
# Conditions: for potentiation of UVA-induced cytotoxicity: UV 5 mJ/cm^2 and 125 mJ/cm^2; for WST-1 raw signal (Figure 5e): replicates
# Protocol: Fig. 5 Comparison of G4 ligand photosensitization. […] Vertical axis, fractional survival, horizontal axis log10 drug concentration (M) (f) Representative images of CPD immunofluorescent staining under UV and drug treatment conditions for U2OS cells, quantified from biological duplicates in (g) (h) Scale bar = 100um. U2OS cells were treated with drug or vehicle control, then immediately irradiated with UVA 125 mJ/cm^2; and fixed 1 h later for immunofluorescence staining with CPD antibody. g Distribution of mean intensity of CPD level per cell (total n = in labels), with two biological repeats per condition. Vertical axis, mean CPD intensity per cell, horizontal axis, conditions (h) WT or KO XPA HAP1 cells assayed for cytotoxicity. Vertical axis, fractional survival (WST-1 assay). The horizontal axis, log10 drug concentration (M). Error bars = standard deviation of the mean. Three biological repeats per condition.
# Human epidermal keratinocytes (HEKa) cells were sourced from Thermo Fisher Scientific, and were grown in EpiLife™ Medium with HKGS. HAP WT and XPA knockout cell lines (Horizon Discovery) were cultured in IMDM, 10% FCS. Human HCT116 cells, U2OS cells (ATCC) were grown in McCoy’s 5 A medium with 10% FBS and L-glutamine. All cell lines are mycoplasma free and have been authenticated by STR or SNP profiling. CX-5461 was provided by Senhwa Biosciences, Inc. PDS is from Sigma-Aldrich, BRACO-19 from Alfa Chemistry, PhENDC3 is from Sigma-Aldrich, γ -H2AX antibody from Abcam (1:1000 for IF) and CPD antibody (1:1500) from Cosmo Bio Ltd. (Catalog number: CAC-NM-DAD-001). The WST-1 assay was performed as previously described, γ H2AX foci staining was performed as previously described. Immunofluorescence staining of CPD was performed according to the protocol from the manufacturer (Cosmo Bio Ltd).
compound,measurement,setting,value
C[n+]1cc(NC(=O)c2ccc3ccc4ccc(C(=O)Nc5cc6ccccc6[n+](C)c5)nc4c3n2)cc2ccccc21 [PhenDC3],potentiation of UVA-induced cytotoxicity,,not
same,WST-1 raw signal (Figure 5e),"conc 1.47e-6, 5mJ/cm2 UV",2.5247 and 1.9665 and 1.5331
same,WST-1 raw signal (Figure 5e),"conc 1.47e-6, 125mJ/cm2 UV",2.2675 and 1.9844 and 1.1454
same,WST-1 raw signal (Figure 5e),"conc 1.47e-6, no UV",1.3654 and 1.4935 and 1.7286
same,WST-1 raw signal (Figure 5e),"conc 2.94e-6, 5mJ/cm2 UV",2.08 and 2.2029 and 1.6368
same,WST-1 raw signal (Figure 5e),"conc 2.94e-6, 125mJ/cm2 UV",2.4823 and 2.523 and 1.7852
same,WST-1 raw signal (Figure 5e),"conc 2.94e-6, no UV",1.5405 and 2.117 and 2.002
same,WST-1 raw signal (Figure 5e),"conc 5.88e-6, 5mJ/cm2 UV",2.4037 and 2.2391 and 1.6885
same,WST-1 raw signal (Figure 5e),"conc 5.88e-6, 125mJ/cm2 UV",2.7023 and 2.4336 and 1.5283
same,WST-1 raw signal (Figure 5e),"conc 5.88e-6, no UV",1.7 and 1.9567 and 2.1724
same,WST-1 raw signal (Figure 5e),"conc 1.18e-5, 5mJ/cm2 UV",2.1812 and 1.9738 and 1.7421
same,WST-1 raw signal (Figure 5e),"conc 1.18e-5, 125mJ/cm2 UV",2.7227 and 2.5018 and 2.3037
same,WST-1 raw signal (Figure 5e),"conc 1.18e-5, no UV",1.7648 and 1.8678 and 1.9824
same,WST-1 raw signal (Figure 5e),"conc 2.35e-5, 5mJ/cm2 UV",0.565 and 0.559 and 0.471
same,WST-1 raw signal (Figure 5e),"conc 2.35e-5, 125mJ/cm2 UV",0.7287 and 0.5914 and 0.574
same,WST-1 raw signal (Figure 5e),"conc 2.35e-5, no UV",0.8347 and 0.741 and 0.6679
same,WST-1 raw signal (Figure 5e),"conc 4.7e-5, 5mJ/cm2 UV",0.2348 and 0.2033 and 0.2076
same,WST-1 raw signal (Figure 5e),"conc 4.7e-5, 125mJ/cm2 UV",0.1706 and 0.1911 and 0.2089
same,WST-1 raw signal (Figure 5e),"conc 4.7e-5, no UV",0.2669 and 0.2647 and 0.2402
same,WST-1 raw signal (Figure 5e),"conc 9.4e-5, 5mJ/cm2 UV",0.1394 and 0.1367 and 0.1266
same,WST-1 raw signal (Figure 5e),"conc 9.4e-5, 125mJ/cm2 UV",0.1442 and 0.1281 and 0.1307
same,WST-1 raw signal (Figure 5e),"conc 9.4e-5, no UV",0.1612 and 0.1272 and 0.1365
same,WST-1 raw signal (Figure 5e),"conc 1.84E-07, 5mJ/cm2 UV",1.7037 and 1.2125 and 1.5201
same,WST-1 raw signal (Figure 5e),"conc 1.84E-07, 125mJ/cm2 UV",1.8011 and 1.8559 and 1.4258
same,WST-1 raw signal (Figure 5e),"conc 1.84E-07, no UV",1.321 and 1.2585 and 1.2601
same,WST-1 raw signal (Figure 5e),"conc 3.67E-07, 5mJ/cm2 UV",1.8869 and 1.5993 and 1.6043
same,WST-1 raw signal (Figure 5e),"conc 3.67E-07, 125mJ/cm2 UV",2.4917 and 1.8093 and 1.3054
same,WST-1 raw signal (Figure 5e),"conc 3.67E-07, no UV",1.2806 and 1.3851 and 1.3161
same,WST-1 raw signal (Figure 5e),"conc 7.34E-07, 5mJ/cm2 UV",1.9796 and 1.8361 and 1.8217
same,WST-1 raw signal (Figure 5e),"conc 7.34E-07, 125mJ/cm2 UV",2.3975 and 1.9653 and 1.3571
same,WST-1 raw signal (Figure 5e),"conc 7.34E-07, no UV",1.5573 and 1.2554 and 1.5011
C[n+]1ccc(-c2c3nc(c(-c4cc[n+](C)cc4)c4ccc([nH]4)c(-c4cc[n+](C)cc4)c4nc(c(-c5cc[n+](C)cc5)c5ccc2[nH]5)C=C4)C=C3)cc1 [TMPYP4],potentiation of UVA-induced cytotoxicity,,not
